Measurements from patent EP4603105A1, “PHARMACEUTICAL COMPOSITION CONTAINING CYCLIC COMPOUND HAVING SELECTIVE KRAS INHIBITORY EFFECT AGAINST HRAS AND NRAS” (CHUGAI SEIYAKU KABUSHIKI KAISHA, priority 2022, dated 2024).
*1 amine or outer side, *2 acyl side, *3 side chain or, on linkers, in order; H or OH if unused. Where a SMILES comes first, the peptide text is derived from it. Bridges are numbered along the chain shown (N, C = ends). [ ]: non-standard residue; d: D form. The star is where a group is joined. X25 = O=C([C@H](Cc1ccc(C(F)(F)F)cc1)N(CCC(F)(F)F)[*:1])[*:2]; hPhe(3-Cl-4-CF3) = N[C@@H](CCc1ccc(C(F)(F)F)c(Cl)c1)C(=O)O; X24 = CC(C)CN([C@@H](Cc1ccc(C(F)(F)F)cc1)C(=O)[*:2])[*:1]; NPrPhe(4-CF3) = CCCN[C@@H](Cc1ccc(C(F)(F)F)cc1)C(=O)O; NMeGly(cPent) = CN[C@H](C(=O)O)C1CCCC1; NMeD = CN[C@@H](CC(=O)O)C(=O)O; NMeL = CN[C@@H](CC(C)C)C(=O)O; Azetidin(1-yl) = C1CN(*)C1; Morpholide = C1CN(*)CCO1; NMeA = CN[C@@H](C)C(=O)O; Ac5c = NC1(C(=O)O)CCCC1; Aze = O=C(O)[C@@H]1CCN1; Ac4c = NC1(C(=O)O)CCC1; NEtG = CCNCC(=O)O; Sar = CNCC(=O)O

How the values were obtained:
[1] = molecular target: GDP-bound NRAS wild-type protein (Homo sapiens, UniProt P01111); test: Binding to NRAS by surface plasmon resonance (SPR), KD and KD ratio to KRAS
Summary of the method: (§1)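 Affinity is measured by surface plasmon resonance at 30°C against captured, GDP-loaded RAS carrying a biotinylated Avi tag. Compounds are titrated by single-cycle kinetics, and KD comes from a 1:1 fit.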

[2] = molecular target: HRAS wild-type protein (Homo sapiens, UniProt P01112); test: Binding to HRAS by surface plasmon resonance (SPR), KD and KD ratio to KRAS
Summary of the method: as §1

[3] = tested on: human lung cancer strain NCI-H441; assay type: cell-based
Summary of the method: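 Readout: […] after the ATP-based reagent. Compound: serial dilutions in dimethyl sulfoxide.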

[4] = ratio of KD for GDP-bound NRAS wild-type protein to KD for KRAS
[5] = ratio of KD for HRAS wild-type protein to KD for KRAS
[6] = ratio of the KD value with respect to GDP-bound NRAS wild-type protein to the KD value with respect to KRAS
[7] = ratio of the KD value with respect to HRAS wild-type protein to the KD value with respect to KRAS

GDP-bound NRAS wild-type protein, sequence (P01111 whole entry): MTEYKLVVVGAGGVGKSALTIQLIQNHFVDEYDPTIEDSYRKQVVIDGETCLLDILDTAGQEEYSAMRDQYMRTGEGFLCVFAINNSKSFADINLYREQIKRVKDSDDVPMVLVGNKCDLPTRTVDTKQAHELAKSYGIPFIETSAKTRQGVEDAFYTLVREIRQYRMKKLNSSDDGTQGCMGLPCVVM
HRAS wild-type protein, sequence (P01112 whole entry): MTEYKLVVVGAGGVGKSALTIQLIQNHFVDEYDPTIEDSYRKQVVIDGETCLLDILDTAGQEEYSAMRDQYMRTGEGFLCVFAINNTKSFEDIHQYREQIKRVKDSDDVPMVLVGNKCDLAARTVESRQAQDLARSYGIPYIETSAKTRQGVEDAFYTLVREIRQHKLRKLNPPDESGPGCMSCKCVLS

Compound | IC50 [3] | NRAS /KRAS [1, 4] | HRAS /KRAS [2, 5] | NRAS /KRAS [1, 6] | HRAS /KRAS [2, 7] | NRAS /KRAS ([1]; ratio of KD value for GDP-bound NRAS wild-type protein to KD value for KRAS (SPR)) | HRAS /KRAS ([2]; ratio of KD value for HRAS wild-type protein to KD value for KRAS (SPR))
CC[C@H](C)[C@@H]1NC(=O)[C@H](CC(C)C)N(C)C(=O)C[C@@H](C(=O)N2CCOCC2)N(C)C(=O)[C@H](C2CCCC2)N(C)C(=O)C2(CCCC2)NC(=O)[C@@H]2CCCN2C(=O)[C@H](CCc2ccc(C(F)(F)F)c(Cl)c2)NC(=O)CN(C)C(=O)[C@H](Cc2ccc(C(F)(F)F)cc2)N(CCC(F)(F)F)C(=O)[C@@H]2CCN2C(=O)[C@H](C)N(C)C1=O [PP0117] ([NMeL]I[NMeA][Aze][X25][Sar][hPhe(3-Cl-4-CF3)]P[Ac5c][NMeGly(cPent)][NMeD]-Morpholide; lactam N-11) | 9.2 nM | B (a compound having 3 or more and less than 10 is denoted as B) | B (a compound having 3 or more and less than 10 is denoted as B) | – | – | – | –
CCO[C@@H]1C[C@H]2C(=O)NC3(CCC3)C(=O)N(C)[C@@H](C3CCCC3)C(=O)N(C)[C@H](C(=O)N3CCOCC3)CC(=O)N(C)[C@@H](CC(C)C)C(=O)N[C@@H]([C@@H](C)CC)C(=O)N(C)CC(=O)N(C)[C@H]3CCCCCN(C3=O)[C@@H](Cc3ccc(F)cc3OC)C(=O)N(C)CC(=O)N[C@@H](CCc3cc(F)c(C(F)(F)F)c(F)c3)C(=O)N2C1 [PP0924] | 92 nM | B (a compound having 3 or more and less than 10 is denoted as B) | B (a compound having 3 or more and less than 10 is denoted as B) | – | – | – | –
CCO[C@@H]1C[C@H]2C(=O)NC3(CCC3)C(=O)N(C)[C@@H](C3CCCC3)C(=O)N(C)[C@H](C(=O)N3CCOCC3)CC(=O)N(C)[C@@H](CC)C(=O)N[C@@H]([C@@H](C)CC)C(=O)N(C)CC(=O)N(C)[C@H]3CCCCCN(C3=O)[C@@H](Cc3ccc(C(F)(F)F)cc3)C(=O)N(C)CC(=O)N[C@@H](CCc3cc(F)c(C(F)(F)F)c(F)c3)C(=O)N2C1 [PP0678] | 35.6 nM | – | – | B (a compound having 3 or more and less than 10 is denoted as B) | B (a compound having 3 or more and less than 10 is denoted as B) | – | –
CCCN1C(=O)CN(C)C(=O)CN(CC)C(=O)[C@H]([C@@H](C)CC)NC(=O)[C@H](CC(C)C)N(C)C(=O)C[C@@H](C(=O)N(C)C)N(C)C(=O)[C@H](C2CCCC2)N(C)C(=O)C2(CCC2)NC(=O)[C@@H]2CCCN2C(=O)[C@H](CCc2ccc(C(F)(F)F)c(Cl)c2)NC(=O)CN(C)C(=O)[C@@H]1Cc1ccc(C(F)(F)F)cc1 [PP0424] ([NMeL]I[NEtG][Sar][NPrPhe(4-CF3)][Sar][hPhe(3-Cl-4-CF3)]P[Ac4c][NMeGly(cPent)][NMeD]-NMe2; lactam N-11) | 9.5 nM | – | – | B (a compound having 3 or more and less than 10 is denoted as B) | C (A compound having a KD ratio of 0.1 or more and less than 3 is denoted as C) | – | –
CCCN1C(=O)[C@@H]2CCN2C(=O)[C@H](C)N(C)C(=O)[C@H]([C@@H](C)CC)NC(=O)[C@H](CC(C)C)N(C)C(=O)C[C@@H](C(=O)N2CCC2)N(C)C(=O)[C@H](C2CCCC2)N(C)C(=O)C2(CCCC2)NC(=O)[C@@H]2CCCN2C(=O)[C@H](CCc2ccc(C(F)(F)F)c(Cl)c2)NC(=O)CN(C)C(=O)[C@@H]1Cc1ccc(C(F)(F)F)cc1 [PP0181] ([NMeL]I[NMeA][Aze][NPrPhe(4-CF3)][Sar][hPhe(3-Cl-4-CF3)]P[Ac5c][NMeGly(cPent)][NMeD]-{Azetidin(1-yl)}; lactam N-11) | 1.5 nM | C (A compound having a KD ratio of 0.1 or more and less than 3 is denoted as C) | B (a compound having 3 or more and less than 10 is denoted as B) | – | – | – | –
CC[C@H](C)[C@@H]1NC(=O)[C@H](CC(C)C)N(C)C(=O)C[C@@H](C(=O)N2CCOCC2)N(C)C(=O)[C@H](C2CCCC2)N(C)C(=O)C2(CCCC2)NC(=O)[C@@H]2CCCN2C(=O)[C@H](CCc2ccc(C(F)(F)F)c(Cl)c2)NC(=O)CN(C)C(=O)[C@H](Cc2ccc(C(F)(F)F)cc2)N(CC(C)C)C(=O)CN(C)C(=O)CN(C)C1=O [PP0121] ([NMeL]I[Sar][Sar][X24][Sar][hPhe(3-Cl-4-CF3)]P[Ac5c][NMeGly(cPent)][NMeD]-Morpholide; lactam N-11) | 29.5 nM | C (A compound having a KD ratio of 0.1 or more and less than 3 is denoted as C) | C (A compound having a KD ratio of 0.1 or more and less than 3 is denoted as C) | – | – | – | –
CCO[C@@H]1C[C@H]2C(=O)NC3(CC(C)(C)C3)C(=O)N(C)[C@@H](C3CCCC3)C(=O)N(C)[C@H](C(=O)N3CCOCC3)CC(=O)N(C)[C@@H](COC)C(=O)N[C@@H]([C@@H](C)CC)C(=O)N(C)CC(=O)N(C)[C@H]3CCCCCN(C3=O)[C@@H](Cc3ccc(C(F)(F)F)cc3)C(=O)N(C)CC(=O)N[C@@H](CCc3cc(F)c(C(F)(F)F)c(F)c3)C(=O)N2C1 [PP0844] | 50.2 nM | B (a compound having 3 or more and less than 10 is denoted as B) | B (a compound having 3 or more and less than 10 is denoted as B) | – | – | – | –

Second part, led by results:

IC50 [3] | Compound | NRAS /KRAS [1, 4] | HRAS /KRAS [2, 5] | NRAS /KRAS [1, 6] | HRAS /KRAS [2, 7] | NRAS /KRAS ([1]; ratio of KD value for GDP-bound NRAS wild-type protein to KD value for KRAS (SPR)) | HRAS /KRAS ([2]; ratio of KD value for HRAS wild-type protein to KD value for KRAS (SPR))
108 nM | CCC[C@H]1C(=O)N[C@@H]([C@@H](C)CC)C(=O)N(C)CC(=O)N(C)[C@H]2C/C=C\CCN(C2=O)[C@@H](Cc2ccc(C(F)(F)F)cc2)C(=O)N(C)CC(=O)N[C@@H](CCc2ccc(C(F)(F)F)c(OC)c2)C(=O)N2CCCC[C@H]2C(=O)NC2(CC(C)(C)C2)C(=O)N(C)[C@@H](C(CC)CC)C(=O)N(C)[C@H](C(=O)N(C)C)CC(=O)N1C [PP2934] | AA (a compound having 20 or more is denoted as AA) | A (a compound having 10 or more and less than 20 is denoted as A) | – | – | – | –
10.3 nM | CC[C@H](C)[C@@H]1NC(=O)[C@H](C2CCC2)N(C)C(=O)C[C@@H](C(=O)N(C)C)N(C)C(=O)[C@H](C2CCCC2)N(C)C(=O)C2(CC(C)(C)C2)NC(=O)[C@@H]2C[C@H](C)CN2C(=O)[C@H](CCc2ccc(C(F)(F)F)c(OC)c2)NC(=O)CN(C)C(=O)[C@H](Cc2ccc(C(F)(F)F)cc2)N2CC/C=C\C[C@@H](C2=O)N(C)C(=O)CN(C)C1=O [PP2011] | – | – | A (a compound having 10 or more and less than 20 is denoted as A) | A (a compound having 10 or more and less than 20 is denoted as A) | – | –
9.5 nM | CC[C@H](C)[C@@H]1NC(=O)[C@H](CC)N(C)C(=O)C[C@@H](C(=O)N(C)C)N(C)C(=O)[C@H](C2CCCC2)N(C)C(=O)C2(CCC2)N(C)C(=O)[C@@H]2C[C@@H](C)CN2C(=O)[C@H](CCc2cc(F)c(C(F)(F)F)c(F)c2)NC(=O)CN(C)C(=O)[C@H](Cc2ccc(C)cc2)N2CC/C=C\C[C@@H](C2=O)N(C)C(=O)[C@@H]2CCCN2C1=O [PP1789] | – | – | – | – | A (a compound having 10 or more and less than 20 is denoted as A) | A (a compound having 10 or more and less than 20 is denoted as A)
7.8 nM | CCCO[C@H](C)[C@@H]1NC(=O)[C@H](CC(C)C)N(C)C(=O)C[C@@H](C(=O)N(C)C)N(C)C(=O)[C@H](C2CCCC2)N(C)C(=O)C2(CC(C)(C)C2)NC(=O)[C@@H]2C[C@@H](OCC)CN2C(=O)[C@H](CCc2cc(F)c(C(F)(F)F)c(F)c2)NC(=O)CN(C)C(=O)[C@H](Cc2ccc(C(F)(F)F)cc2)N2CC/C=C\C[C@@H](C2=O)N(C)C(=O)CN(C)C1=O [PP1921] | – | – | A (a compound having 10 or more and less than 20 is denoted as A) | A (a compound having 10 or more and less than 20 is denoted as A) | – | –
27.6 nM | CCO[C@@H]1C[C@H]2C(=O)NC3(CCC3)C(=O)N(C)[C@@H](C(CC)CC)C(=O)N(C)[C@H](C(=O)N3CCCC3)CC(=O)N(C)[C@H]3CCCCC/C=C/c4ccc(cc4)C[C@@H](C(=O)N(C)CC(=O)N[C@@H](CCc4ccc(Cl)c(Cl)c4)C(=O)N2C1)N1CC/C=C\C[C@@H](C1=O)N(C)C(=O)CN(C)C(=O)[C@H]([C@@H](C)CC)NC3=O [PP3052] | AA (a compound having 20 or more is denoted as AA) | A (a compound having 10 or more and less than 20 is denoted as A) | – | – | – | –
8.6 nM | CCO[C@@H]1C[C@H]2C(=O)NC3(CCC3)C(=O)N(C)[C@@H](C3CCCC3)C(=O)N(C)[C@H](C(=O)N(C)CC)CC(=O)N(C)[C@@H](CC3CCC3)C(=O)N[C@@H]([C@@H](C)CC)C(=O)N(C)CC(=O)N(C)[C@H]3C/C=C\CCN(C3=O)[C@@H](Cc3ccc(C(F)(F)F)cc3)C(=O)N(C)CC(=O)N[C@@H](CCc3ccc(C(F)(F)F)c(Cl)c3)C(=O)N2C1 [PP2826] | A (a compound having 10 or more and less than 20 is denoted as A) | A (a compound having 10 or more and less than 20 is denoted as A) | – | – | – | –
2.1 nM | CC[C@H](C)[C@@H]1NC(=O)[C@H](CC(C)C)N(C)C(=O)C[C@@H](C(=O)N2CCOCC2)N(C)C(=O)[C@H](C2CCCC2)N(C)C(=O)C2(CCC2)NC(=O)[C@@H]2C[C@@H](OCC(F)F)CN2C(=O)[C@H](CCc2cc(F)c(C(F)(F)F)c(F)c2)NC(=O)CN(C)C(=O)[C@H](Cc2ccc(C(F)(F)F)cc2)N2CCCC[C@@H](C2=O)N(C)C(=O)CN(C)C1=O [PP1002] | B (a compound having 3 or more and less than 10 is denoted as B) | B (a compound having 3 or more and less than 10 is denoted as B) | – | – | – | –
9.6 nM | CCC[C@H]1C(=O)N[C@@H](C2CCCC2)C(=O)N(C)CC(=O)N(C)[C@H]2C/C=C\CCN(C2=O)[C@@H](Cc2ccc(C(F)(F)F)cc2)C(=O)N(C)CC(=O)N[C@@H](CCc2ccc(C(F)(F)F)c(Cl)c2)C(=O)N2C[C@H](OCC)C[C@H]2C(=O)NC2(CC(C)(C)C2)C(=O)N(C)[C@@H](C2CCCC2)C(=O)N(C)[C@H](C(=O)N(C)C)CC(=O)N1C [PP2984] | A (a compound having 10 or more and less than 20 is denoted as A) | B (a compound having 3 or more and less than 10 is denoted as B) | – | – | – | –
